Results: patent US6462086B1, “Non-malignant disease treatment with Ras antagonists” (Ramot University Authority for Applied Research and …, priority 1999, dated 2002)
“Also recorded” adds a separate entry of the source.

Experiments:
lymphocytes of EAE mice = test: In vitro mitogenic response (LPS, PLP 139-151 peptide) of lymph node lymphocytes of EAE mice; type: cell-based, mouse; conditions: 25 microM FTS; lymphocytes of EAE mice day 10
[1] = system: acute experimental autoimmune encephalomyelitis (EAE) in SJL/J mice; test: Acute EAE in SJL/J mice, clinical signs; type: in vivo, mouse; conditions: compared to controls
Protocol: Induction of acute EAE was based on a modification of Bernard's protocol (13). Briefly, equal volumes of MSCH (10 mg/ml in PBS) and complete Freud's adjuvant (CFA) enriched with Mycobacterium tuberculosis H37Ra (6 mg/ml) (Difco Laboratories, Detroit, Mich.) were homogenized in a blender. For each mouse, 0.1 ml (0.5 mg) of the emulsion were injected s.c. into the four footpads. Immediately thereafter and 2 days later, mice were injected i.v. with Bordetella pertussis (2.7×10^9 organisms per mouse) (Rafa Laboratories, Jerusalem, Israel). Animals were examined daily for signs of disease. The first clinical signs appeared on day 10-12 post immunization and were scored according to the following six point scale: 0: no abnormality; 1: mild tail weakness (floppy tail); 2: tail paralysis; 3: tail paralysis and hind leg paresis; 4: hind leg paralysis or mild forelimb weakness; 5: quadriplegia or moribund state; 6: death.
FTS (as powder) was diluted in chloroform (35.8 mg/ml of FTS=0.1 M) and kept in aliquods. The content (25 μl) of one aliquod was evaporated under nitrogen and then disolved in 6 μl absolute ethanol and 7 μl of 1N NaOH; 890 μl of PBS were subsequently added. Each mouse received 0.1 ml of this solution daily (0.1 mg/mouse or 5 mg/kg) intraperitoneally (i.p.).

[2] = system: splenocytes from ICR mice; type: cell-based, mouse; conditions: 10 and 50 μM FTS
Protocol: An examination was made as to whether the effect of FTS on Ras levels was of functional importance in splenocytes prepared from 2 ICR mice. Stimulation of ^3H-thymidine incorporation into DNA was used as measure of splenocyte proliferation in the presence of lipopolysaccharide (LPS) or concanavalin A (ConA), and in the presence of 0, 10 and 50 μM FTS. The methods used are detailed below. […] Also, FTS had no effect on basal ^3H-thymidine incorporation into DNA. The concentrations of FTS at which inhibition of lymphocyte cell growth were observed reflect expected levels of the drug when given in animals at doses of 5-10 mg/kg.
Mice were killed by cervical dislocation and spleens removed with sterile precautions and placed in disposable plastic Petri dishes containing Dulbecco's phosphate-buffered saline (DPBS). […] Cells from each microculture were harvested on fibroglass filters with multiharvester and counted in liquid scintillation β counter.
Mitogens and antigens were diluted to appropriate concentrations in the incubation medium and added to the wells at the beginning of incubation period to give a final concentration of 1.0 μg/ml lipopolysaccharide (LPS), 1.0 μg/ml Concanavalin A (ConA) or 10 μg/ml beta2-Glycoprotein I (beta2-GPI). Spontaneous proliferation (without mitogen or antigen) was also assessed. […]
The results are expressed as the mean value of stimulation index per group. […]

Wistar rats = type: in vivo
Protocol: The FTS was dissolved in PBS and administered i.p. 3 times a week to rats according to their assigned groups. Four groups containing 6 rats each were treated as follows. One group received TAA 200 mg/kg i.p. twice a week and i.p. injections of PBS 3 days a week for 12 weeks (cirrhotic controls for the FTS-treated groups). A second group received TAA for 12 weeks and FTS 5 mg/kg, 3 times a week. […] The two control groups consisted of one that received PBS injections without TAA for 12 weeks (normal controls) and a group of 5 rats that received only FTS 5 mg/kg i.p. for 12 weeks to monitor the appearance of adverse effects.
In order to monitor the presence of adverse effects caused by the prolonged administration of FTS, a control group received the Ras antagonist for 12 weeks.

MRL/lpr mice = test: Lymphadenopathy and splenomegaly in MRL mice; type: in vivo, mouse
Protocol: The development of generalized lymphadenopathy in the MRL/lpr mice (saline and FTS-treated) was evaluated by palpation of axillary and inguinal lymph nodes. The maximal lymph nodes score in each mouse was 4, when both axillary and inguinal lymph nodes (in both sides) were palpable. At 18 weeks of age the mice were sacrificed and the spleens and lymph nodes (axillary, inguinal and cervical) were removed and weighed.

## CC(C)=CCC/C(C)=C/CC/C(C)=C/CSc1ccccc1C(=O)O [FTS, farnesyl thiosalicylic acid]
Lymphocytes of EAE mice
  suppression of the LPS mitogenic response: 91%
  suppression of the PLP mitogenic response: 62%
[1]
  clinical course of EAE (FIG. 1): significantly ameliorated
[2]
  LPS and ConA induced splenocyte proliferation (stimulation index): significant reduction
  basal 3H-thymidine incorporation into DNA: no effect
Wistar rats; FTS 5 mg/kg alone for 12 weeks
  mortality and adverse effects: no mortality or major adverse effects
Wistar rats; TAA+FTS, n=6
  survival after 12 weeks: none of the rats died
MRL/lpr mice; MRL/++ mice, untreated 0.13±0.01
  spleen weight: 0.19 ± 0.03 g
MRL/lpr mice; MRL/lpr mice
  lymphadenopathy (palpation score): significantly delayed; also recorded: significantly less
  weight of excised lymph nodes: significant effect of FTS; also recorded: significantly less
MRL/lpr mice; MRL/lpr mice, 17 weeks, mean±SE, untreated 0.54±0.04
  spleen weight: 0.41 ± 0.04 g
